The text below walks through data of patent US8609836B2, “4-aryl-2-anilino-pyrimidines” (Janssen Pharmaceutica NV, priority 2008, dated 2013).

Some results are limits rather than exact numbers.

The target of data set [1] is PLK2 (h) (Homo sapiens, UniProt Q9NYY3). The data set can be described thus: PLK2 human kinase inhibition, SPA. Format: biochemical. The conditions noted are these: read-out: PLK2 pIC50 (converted). An outline of the steps:
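33P incorporation into a biotinylated peptide (2 μM) was captured on streptavidin PVT beads and imaged on Leadseeker. Enzyme at 30 μg/ml, ATP 0.1 μM with 2 nM [γ-33P]ATP, Hepes pH 8.0 with MnCl2 and DTT. Incubation was 20 min at room temperature.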

In data set [2] the target is PLK1 T210D (h) (Homo sapiens, UniProt P53350, T210D). The data set can be described thus: PLK1 human kinase inhibition, SPA. As to conditions: read-out: PLK1 pIC50 (converted). The data set is classed as biochemical. Put shortly:
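Kinase incubated 40 min at room temperature with 0.1 μM ATP (2 nM [γ-33P]ATP tracer), 2 μM biotinylated peptide, pH 8.0 Hepes buffer with 2 mM MnCl2 and 1 mM DTT; enzyme at 0.125 ng/ml. Stopped with EDTA; 33P-peptide bound to streptavidin scintillant beads and imaged.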

Data set [3] addresses CDK4/CyclinD1 (h) (Homo sapiens, UniProt P11802). In words: CDK4/CyclinD1 human kinase inhibition, SPA with GST-pRb substrate. Format: biochemical. As to conditions: read-out: CDK4 pIC50 (converted). An outline of the steps:
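Scintillation proximity format: after EDTA/Triton stop containing glutathione SPA beads, 33P incorporation was counted. The reaction ran 60 min at room temperature in Hepes pH 7.5 with NaF, MgCl2, DTT, using 2.5 μg/ml human CDK4/CyclinD1, 40 μg/ml GST-pRb substrate and 2 nM [γ-33P]ATP.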

For data set [4], the system named is MDA-MB-231. In words: Cellular proliferation assay (Alamar blue), MDA-MB-231. The conditions noted are these: Homo sapiens, 10% FCS, 72 hours with compound, Alamar blue 24 h, read-out: MDA/MB231 (cellular proliferation assay, Table 4) (converted). Format: cell-based. Put shortly: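 Alamar blue fluorescence (544/590 nm) measured viable cells after 72 h compound exposure; dye incubation 4 h (HCT-116), 6 h (U87-MG) or 24 h (A2780, MDA-MB-231). Cells pre-seeded 24 h, grown in 10% FCS, 37° C, 5% CO2; effect expressed relative to control cells.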

Sequence of PLK1 T210D (h) (P53350 whole entry T210D): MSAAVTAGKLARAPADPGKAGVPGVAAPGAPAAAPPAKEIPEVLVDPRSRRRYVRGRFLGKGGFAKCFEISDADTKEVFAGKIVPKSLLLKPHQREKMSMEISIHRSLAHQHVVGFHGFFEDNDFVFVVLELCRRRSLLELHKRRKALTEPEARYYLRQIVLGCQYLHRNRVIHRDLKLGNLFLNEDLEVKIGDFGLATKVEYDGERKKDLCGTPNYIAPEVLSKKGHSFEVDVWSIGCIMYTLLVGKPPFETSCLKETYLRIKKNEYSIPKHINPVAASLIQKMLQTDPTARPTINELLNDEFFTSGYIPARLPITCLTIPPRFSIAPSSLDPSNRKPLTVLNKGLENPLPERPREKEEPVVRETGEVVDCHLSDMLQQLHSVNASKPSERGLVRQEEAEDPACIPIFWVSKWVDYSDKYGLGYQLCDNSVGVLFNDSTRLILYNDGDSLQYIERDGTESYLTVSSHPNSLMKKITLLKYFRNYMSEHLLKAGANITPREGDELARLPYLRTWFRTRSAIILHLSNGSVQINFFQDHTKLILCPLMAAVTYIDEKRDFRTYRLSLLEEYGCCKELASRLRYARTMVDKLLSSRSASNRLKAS
Sequence of PLK2 (h) (Q9NYY3 whole entry): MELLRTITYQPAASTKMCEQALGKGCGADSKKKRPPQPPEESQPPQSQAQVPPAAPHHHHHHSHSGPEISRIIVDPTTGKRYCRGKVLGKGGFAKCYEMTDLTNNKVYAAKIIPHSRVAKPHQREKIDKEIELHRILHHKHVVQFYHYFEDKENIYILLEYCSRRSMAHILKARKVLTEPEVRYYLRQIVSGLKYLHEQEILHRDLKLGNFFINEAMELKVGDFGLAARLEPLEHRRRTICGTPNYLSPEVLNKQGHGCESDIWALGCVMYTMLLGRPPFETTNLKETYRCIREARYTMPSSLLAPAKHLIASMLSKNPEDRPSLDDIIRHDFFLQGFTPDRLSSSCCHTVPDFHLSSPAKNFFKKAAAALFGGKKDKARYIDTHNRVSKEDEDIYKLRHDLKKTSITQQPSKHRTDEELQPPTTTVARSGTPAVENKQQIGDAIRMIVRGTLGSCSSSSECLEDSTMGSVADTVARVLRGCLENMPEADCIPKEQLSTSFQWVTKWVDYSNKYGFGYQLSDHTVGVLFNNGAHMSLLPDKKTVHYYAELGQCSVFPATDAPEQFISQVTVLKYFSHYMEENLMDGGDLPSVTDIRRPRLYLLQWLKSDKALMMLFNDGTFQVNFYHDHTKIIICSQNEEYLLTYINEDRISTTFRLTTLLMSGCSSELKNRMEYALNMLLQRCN
Sequence of CDK4/CyclinD1 (h) (P11802 whole entry): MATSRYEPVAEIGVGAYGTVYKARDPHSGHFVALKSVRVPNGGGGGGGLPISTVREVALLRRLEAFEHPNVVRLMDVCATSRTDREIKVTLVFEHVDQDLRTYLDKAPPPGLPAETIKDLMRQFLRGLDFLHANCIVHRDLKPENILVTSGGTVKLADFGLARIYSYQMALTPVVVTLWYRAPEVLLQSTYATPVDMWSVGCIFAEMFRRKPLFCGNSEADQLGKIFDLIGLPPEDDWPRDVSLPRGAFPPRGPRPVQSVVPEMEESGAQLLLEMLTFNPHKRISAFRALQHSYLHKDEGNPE
Sequence of CDK4/CyclinD1 (h) (P24385 whole entry partner): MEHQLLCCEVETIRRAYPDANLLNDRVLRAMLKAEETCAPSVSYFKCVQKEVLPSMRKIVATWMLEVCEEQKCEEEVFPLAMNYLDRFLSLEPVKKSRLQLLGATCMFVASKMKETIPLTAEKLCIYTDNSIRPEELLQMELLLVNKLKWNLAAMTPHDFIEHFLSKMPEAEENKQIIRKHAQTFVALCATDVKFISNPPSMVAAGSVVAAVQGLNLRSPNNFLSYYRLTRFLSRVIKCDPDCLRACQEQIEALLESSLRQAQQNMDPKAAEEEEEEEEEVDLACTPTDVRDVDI

On to `O=C1CN2CCN(CC2)Cc2cccc(c2)Nc2nccc(n2)-c2ccnc(c2)CCCN1` [Compound 21], for which the melting point (usually the temperature of the solid-liquid transition) fell in the range of 243.2 to 244.3 °C. Moreover, in data set [1], the IC50 was above 10 µM. Besides, in data set [2], the IC50 was above 10 µM. Moreover, the IC50 in data set [3] was 1.29 µM. In addition, the IC50 in data set [4] was above 10 µM.
With `O=C1NCCCc2cc(ccn2)-c2ccnc(n2)Nc2cccc(c2)CN[C@H]1CO` [Compound 19], the melting point lay within 253.6 to 254.9 °C. Further, in data set [1], the IC50 is above 10 µM. Also, the IC50 in data set [2] was above 10 µM. Moreover, the IC50 in data set [3] was 1.26 µM. In data set [4], the IC50 was 6.17 µM.
Consider `COc1ccc2cc1CN(C)CCCNC(=O)[C@@H]1CCCN1Cc1cc(cc(N3CCOCC3)c1)Nc1nccc-2n1` [Compound 179], for which the IC50 in data set [1], in data set [2], in data set [3] and in data set [4] was above 10 µM throughout.
`CC(C)Nc1cc2cc(c1)Nc1nccc(n1)-c1ccc(cc1)CN(C)CCNC(=O)C1CCN(CC1)C2` [Compound 61]: the IC50 in data set [1] was above 10 µM; in data set [2], above 10 µM; in data set [3], 7.41 µM; in data set [4], above 10 µM.
For `O=C1NCCCc2cc(ccn2)-c2ccnc(n2)Nc2ccc(N3CCOCC3)c(c2)CN2CCCC12` (stereo not drawn) [Compound 48], the IC50 in data set [1], in data set [2], in data set [3] and in data set [4] was above 10 µM in each case.
On to `O=C1NCCCOc2cccc(c2)-c2ccnc(n2)Nc2ccc(N3CCOCC3)c(c2)CN2CCC[C@@H]12` [Compound 96], for which the IC50 in data set [1], in data set [2], in data set [3] and in data set [4] was above 10 µM each time.
With `COc1ccc2cc1CN(C)CCCNC(=O)CN1CCN(CC1)Cc1cc(cc(N3CCOCC3)c1)Nc1nccc-2n1` [Compound 141], the IC50 in data set [1], in data set [2], in data set [3] and in data set [4] was above 10 µM in each case.
